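All cell lines were grown in 96-well plates and treated with compound for 48 hours. TGI is the concentration that stops growth completely.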
Tests used:
Assay in all cases: NCI-60 cell line screen, 48 h
U251 CNS = system: U251 CNS
UO-31 renal = system: UO-31 renal
OVCAR-5 ovarian = system: OVCAR-5 ovarian
LOX IMVI melanoma = system: LOX IMVI melanoma
SN12C renal = system: SN12C renal
MOLT-4 leukemia = system: MOLT-4 leukemia
SF-295 CNS = system: SF-295 CNS
HOP-92 NSCLC = system: HOP-92 NSCLC
MDA-N = system: MDA-N
BT-549 breast = system: BT-549 breast
MCF7 breast = system: MCF7 breast
SK-OV-3 ovarian = system: SK-OV-3 ovarian

| SMILES | TGI (U251 CNS) [µM] | TGI (UO-31 renal) [µM] | TGI (OVCAR-5 ovarian) [µM] | TGI (LOX IMVI melanoma) [µM] | TGI (SN12C renal) [µM] | TGI (MOLT-4 leukemia) [µM] | TGI (SF-295 CNS) [µM] | TGI (HOP-92 NSCLC) [µM] | TGI (MDA-N) [µM] | TGI (BT-549 breast) [µM] | TGI (MCF7 breast) [µM] | TGI (SK-OV-3 ovarian) [µM] |
| --- | --- | --- | --- | --- | --- | --- | --- | --- | --- | --- | --- | --- |
| N#Cc1c(SCc2ccccc2)nc(-c2ccccc2)[nH]c1=S | 45.1 | 35 | 53.6 | 63.9 | 82 | 85.2 | 55.1 | 85.7 | 67.1 | 54.2 | 71 | 60.1 |
| COC(=O)c1cc(NC(=O)c2cc(NC(=O)c3cc([N+](=O)[O-])cn3C)cn2C)cn1C | > 100 | > 100 | > 100 | > 100 | > 100 | > 100 | > 100 | 95.7 | > 100 | > 100 | > 100 | > 100 |
| CC(=O)N1CCc2c([nH]c3ccc(Br)cc23)C1c1ccccc1 (centres undefined) | > 10 | > 10 | > 10 | > 10 | > 10 | > 10 | > 10 | > 10 | > 10 | > 10 | > 10 | > 10 |
| [Se]=P(c1ccccc1)(c1ccccc1)c1ccc(C(c2ccccc2)=P(c2ccccc2)(c2ccccc2)c2ccccc2)cc1 | 5.25 | 20.1 | 18.7 | 2.48 | 10.2 | 12.6 | 10.2 | 1.91 | 4.57 | 6.56 | 2.93 | 12.1 |
| ClC(Cl)(Cl)C1=N[C@H]2[C@H](Br)[C@@H]3O[C@@H](c4ccccc4)[C@H](c4ccccc4)O[C@@H]3[C@H]2O1 | 31.2 | 38.5 | 37.5 | 33.3 | 37.2 | 45.7 | 34.3 | 31.5 | 38 | 53 | 32.6 | 40.5 |
| Clc1nc(Cl)c(Cl)c(Cl)n1 | 36.1 | 46.4 | 43.1 | 27.3 | 42.7 | 15.5 | 36.9 | 56.4 | 37.9 | 42.4 | 37.9 | 30.3 |
| Cc1ccc(S(=O)(=O)/N=C(\NN)Nc2ccc(Cl)cc2)cc1 | > 100 | > 100 | > 100 | > 100 | > 100 | > 100 | > 100 | > 100 | > 100 | > 100 | > 100 | > 100 |
| CCOC(=O)c1cc(C(=O)c2ccccc2)n2nc(-c3ccc(Cl)cc3)ccc12 | 66.3 | 27.1 | 58 | > 100 | 78.6 | > 100 | 54.2 | 60.5 | > 100 | 35.4 | 53.2 | 34.5 |
| C=CCOc1ccccc1N=N/C(C#N)=N\Nc1ccccc1OCC=C | > 100 | > 100 | > 100 | > 100 | > 100 | > 100 | > 100 | > 100 | 94.7 | > 100 | > 100 | > 100 |
| CN(C)c1nc(NC23CC4CC(CC(C4)C2)C3)nc(N(C)C)n1 | > 55.3 | > 77.2 | > 100 | 17.8 | > 85.4 | > 57.3 | > 33.3 | 82.2 | > 45.9 | > 100 | > 63.3 | > 100 |
| CC(C)C(C/C=C1\CC(CO)(COC(=O)c2ccccc2)OC1=O)C(C)C (centres undefined) | 39.1 | 32.4 | 28 | 54.6 | 31.1 | 42.6 | 28.7 | 29.3 | 57.8 | 36.9 | 40.9 | 87.9 |
| CC1(C)[C@@H](Cn2cnc3c(N)ncnc32)CC[C@@]1(C)CO | > 100 | > 100 | > 100 | > 100 | > 100 | > 100 | > 100 | > 100 | > 100 | > 100 | > 100 | > 100 |

— PubChem BioAssay (NCI)
